These results are taken from US20250255771A1, “OPHTHALMIC DEVICES FOR MANAGEMENT OF WATER VAPOR TRANSMISSIBILITY, DELIVERY OF PHARMACEUTICAL AGENTS, AND NON-SURGICAL CORNEAL RESHAPING” (OCULAR SURFACE INNOVATIONS INC., priority 2024, published 2025).

The conditions of series [1]: same polydimethylsiloxane devices; stated as known; cited from earlier work.
Series [2] can be described thus: Selective transfer of molecules through ultrahigh Dk lens material. The format is physicochemical. The conditions noted are these: ultrahigh Dk lens material selective to molecules by size. The text has this:
The inventors discovered an ultrahigh Dk lens material that is selective to the transfer of molecules based on their size. […] The material has value in reverse osmosis systems because of its selective permeability. Its transmissibility may be regulated by the thickness profile of the ophthalmic device or may be further regulated by the addition of surface modification or fillers within the substrate of the material that produce selective permeability related to polar surface area or the molecular weight of a permeant.

Series [3] in a line: Retention of permeants under polydimethylsiloxane devices during wearing. The conditions noted are these: devices 14.3 mm overall diameter, thickness greater than 0.400 mm; not found in device substrate after removal or in pre device tear film during wearing.

Turning to `CCO` [ethanol], the “transmissibility through the devices” value in series [1] was “high transmissibility”. Take `O=O` [oxygen]: in series [1], the “transmissibility through the devices” value is listed as “high transmissibility”. Also, the “transfer through the material” value in series [2] is “will transfer”. Take `[Cl-].[Na+]` [sodium chloride]: the “transfer through the material” value in series [2] is “will not transfer”. As to `O=C([O-])c1ccccc1-c1c2ccc(=O)cc-2oc2cc([O-])ccc12.[Na+].[Na+]` [sodium fluorescein], the “retention of permeant behind the device (permeation through device)” value in series [3] is listed as “retained in the post lens tear space”. Take `O` [water vapor]: in series [1], the “transmissibility through the devices” value is on record as “high transmissibility”. In addition, the “transfer through the material” value in series [2] is “will transfer”.
